Earlier results, collected in patent publication US10420763B2, “Sublingual apomorphine” (Sunovion Pharmaceuticals Inc., priority 2009, dated 2019).

Tested on: Parkinson's patients

CN1CCc2cccc3c2[C@H]1Cc1ccc(O)c(O)c1-3 [apomorphine]
adverse effects of intranasal administration (intranasal administration (Koller et al. 2004)): transient nasal blockage, burning sensation and swollen nose and lips
common side effect of subcutaneous injection (subcutaneous injection (Prietz et al. 1998)): development of nodules, which often become infected
adverse effects of sublingual tablets (sublingual administration of apomorphine tablets, prolonged use (Deffond et al. 1993)): severe stomatitis on prolonged use with buccal mucosal ulceration in half the patients treated
